Data on two compounds can be found in patent publication US20050054103A1, “Expansion of renewable stem cell populations using modulators of PI 3-kinase” (priority 2003, published 2005).

Molecules are shown by their SMILES. Bounds are passed on as bounds.

One assay has as its system CD34+ cell cultures. The assay is described as follows: Colony forming unit (CFU, LTC-CFUc) ability of RAR antagonist treated CD34+ cultures. The assay is classed as cell-based, human. The settings on record: for No. of CFU*103: RAR antagonist 10^−5 M for one week only. The procedure:
Cells were cloned in semi-solid, methylcellulose-containing medium supplemented with 2 IU/ml erythropoietin (Eprex, Cilag AG Int., Switzerland), stem cell factor and IL-3, both at 20 ng/ml, and G-CSF and GM-CSF, both at 10 ng/ml (all from Perpo Tech). Cultures were incubated for 14 days at 37° C., 5% CO2 in a humidified atmosphere.
Briefly, the ability of the cultures to maintain self-renewal was measured by determination of the content of colony forming unit cells in the long and extended long-term cultures (LTC-CFUc), as described in the references hereinabove.
Long-term CD34^+ cell cultures were supplemented with a combination of 4 cytokines, Flt3, TPO, IL-6 and IL-3, with and without varying predetermined concentrations of the RAR antagonist AGN 194310. RAR antagonist treatment of the cultures was for a limited period of three weeks or was continuous during the entire culture period. The ability to form CFUs was determined for long-term (6 weeks) cultures treated with 2 doses of the RAR antagonist for a short pulse or continuously and was compared to control samples treated with cytokines alone.

The test system of another assay is CD34 cells. Nature of the assay: Transition metal chelators in CD34+ cell liquid cultures (cell number, CD34 cells, clonability). The assay is classed as cell-based, human. The following applies: for Cells/ml (×10^4): FL, SCF, IL-6 50 ng/ml; for CFU expansion (fold): CFU day 7 / CFU day 0.
The test system of assay [1] is lethally irradiated Balb/c X C57B1/6 F1 mice. Nature of the assay: Hematopoietic reconstitution of lethally irradiated mice, fresh vs. ex-vivo expanded cells. The assay is classed as in vivo. As to the method: Hematopoietic reconstitution of lethally irradiated mice—fresh vs. ex-vivo expanded cells: Three month old female Balb/c X C57B1/6 F1 mice were lethally irradiated (1000 rad) and transplanted one day later with 1×10^5 fresh bone marrow cells or the yield of 1×10^5 bone marrow cells expanded ex-vivo either with or without TEPA for 3 to 5 weeks, as detailed in Table 12. Peripheral blood WBC counts were performed on weekly basis.

[2] abbreviates: TEPA 10 μM, without IL-3, day 7.
Where [3] appears, read: Exp. I, 3 weeks ex-vivo with TEPA + cytokines, day 13.
[4] abbreviates: Exp. I, 3 weeks ex-vivo with TEPA + cytokines, day 19.
Where [5] appears, read: Exp. II, 3 weeks ex-vivo with TEPA + cytokines, day 11.
The mark [6] stands for this setting: Exp. II, 3 weeks ex-vivo with TEPA + cytokines, day 29.
[7] abbreviates: Exp. III, 5 weeks ex-vivo with TEPA + cytokines, day 6.
The mark [8] stands for this setting: Exp. III, 5 weeks ex-vivo with TEPA + cytokines, day 11.

With `CCc1ccc(C2=CC(C)(C)Sc3ccc(C#Cc4ccc(C(=O)O)cc4)cc32)cc1` [AGN 194310], the results for the “No. of CFU*103” value in the assay with CD34+ cell cultures (week 13) and with CD34+ cell cultures (week 20) were 66355 *103 and 0 *103, respectively. Besides, the “increase of CFU content” value in the assay on CD34+ cell cultures (extended long-term cultures (week 6 to 10), pulse or continuous treatment) is on record as 15×10^4. In addition, in the assay on CD34+ cell cultures (long-term (6 weeks) cultures, pulsed first 3 weeks or continuous antagonist), the “increase in CFU content as compared to control” value was 5 fold.

As for `NCCNCCNCCNCCN` [TEPA, tetraethylenepentamine], in the assay on CD34 cells, the “effect on differentiation of CD34+ cells” value is reported as “inhibit differentiation”. Besides, the “Cells/ml (×10^4)” value is recorded as 11 ×10^4 in the assay on CD34 cells (TEPA 10 μM, with IL-3 20 ng/ml, day 7) and 2 ×10^4 with CD34 cells (setting [2]). The “CD34 cells (%)” value with CD34 cells (TEPA 10 μM, with IL-3, day 7) came out at 20%; in the assay with CD34 cells (setting [2]), 11.5%. For the same compound, the “Colonies (Per 1 × 10^3 initiating cells)” value in the assay on CD34 cells (TEPA 10 μM, with IL-3, day 7) is given as 850; with CD34 cells (setting [2]) it was 140. Moreover, the “CFU expansion (fold)” value stood at 17 fold with CD34 cells (TEPA 10 μM, with IL-3) and 2.8 fold with CD34 cells (TEPA 10 μM, without IL-3). The compound further gave a CFUc expansion in the assay on CD34 cells (after 6 weeks) of 120 fold. In addition, the “CFUc content of cultures” value in the assay with CD34 cells (after 6 weeks, started with 2.5×10^3 CFUc) is reported as 300×10^3 CFUc. For the same compound, the “time long-term CD34 cultures could be maintained” value in the assay on CD34 cells (early-acting cytokines, no stromal cells, TEPA 10 μM) is given as > 6 weeks. The “cell proliferation and CFUc expansion in long-term CD34 cultures” value with CD34 cells (long term cultures with early cytokines) was “more effective than the short-chain polyamines”. The “concentration with optimal activity” value with CD34 cells (polyamine chelating agents, long-term CD34 cultures (FIGS. 39a-b)) turned out to be 40 µM; with CD34 cells (transition metal chelating agents, long-term CD34 cultures (FIGS. 40a-b)), 10 µM. The Survival in assay [1] (setting [3]), in assay [1] (setting [4]), in assay [1] (setting [5]), in assay [1] (setting [6]), in assay [1] (setting [7]) and in assay [1] (setting [8]) was 5/5 each time. Further, the Survival in assay [1] (Exp. III, 5 weeks ex-vivo with TEPA + cytokines, day 19) was 4/5; in assay [1] (Exp. III, 5 weeks ex-vivo with TEPA + cytokines, day 27), 4/5. Further, the “WBC × 10^6/ml” value in assay [1] (setting [3]) was 0.7 × 10^6/ml; in assay [1] (setting [4]) it was 1.5 × 10^6/ml; in assay [1] (setting [5]), 0.92 × 10^6/ml; in assay [1] (setting [6]), 10.8 × 10^6/ml; in assay [1] (setting [7]), 0.69 × 10^6/ml; in assay [1] (setting [8]) it was 1.27 × 10^6/ml. Besides, the “WBC recovery vs fresh cells or cells expanded without TEPA” value in assay [1] (bone marrow cells expanded ex-vivo in the presence of TEPA) is recorded as “faster”.
